Measured values taken from patent publication US20240246916A1, “7-NITRO-8-HYDROXYQUINOLINE DERIVATIVES, PREPARATION METHOD THEREFORE AND MEDICAL USE THEREOF” (Jiangsu Yahong Meditech Co., Ltd., priority 2021, published 2024).
In brackets after ≈: the same amount, converted by molar mass.

Tests used:
Type in all cases: cell-based
[1] = MIC by micro broth dilution (CLSI), Klebsiella pneumoniae; settings: Standard strain
Source text: The test bacteria were one strain of clinically isolated carbapenem-resistant Escherichia coli, two strains of carbapenem-resistant Acinetobacter baumannii, two strains of methicillin-resistant Staphylococcus aureus, two strains of sensitive Staphylococcus aureus, and 7 strains of Klebsiella pneumoniae. Duplicate strains isolated from the same patient were eliminated. There were also […] quality control strains Escherichia coli ATCC25922, Acinetobacter baumannii ATCC19606, Staphylococcus aureus ATCC29213, Klebsiella pneumoniae ATCC BAA-1705, ATCC 43816, ATCC BAA-2472, ATCC-BAA-1898, ATCC-BAA-1899, NCTC 13440 and ATCC-BAA-2470. There were 24 strains in total.
According to the recommendations of relevant documents of the American Clinical and Laboratory Standards Institute (CLSI), the micro broth dilution method was used to determine the MIC of the compounds of the present invention against clinically isolated strains. • 3.1 Formulation of antibacterial drug: All the compounds of the present invention were dissolved in DMSO. The drug concentration range was 128 mg/L to 0.06 mg/L. • 3.2 Culture medium: The drug susceptibility test used cation adjusted Mueller-Hinton broth (CAMHB). • 3.3 Amount of inoculum: The test bacteria cultured overnight were adjusted to 0.5 McFarland turbidity by the direct colony suspension method, and diluted 100 folds, the final inoculum amount was 10^5 CFU/mL. • 3.4 Culture conditions: The test bacteria were cultured at 35±2° C. for 20 hours in air.
The drug susceptibility test results were interpretated by reference to CLSI 2019 M100 29th edition criteria.
The quality control strains of the drug susceptibility test were Escherichia coli ATCC 25922, Acinetobacter baumannii ATCC 19606, Staphylococcus aureus ATCC 29213, Klebsiella pneumoniae ATCC BAA-1705, ATCC 43816, ATCC BAA-2472, ATCC-BAA-1898, ATCC-BAA-1899, NCTC 13440 and ATCC-BAA-2470.
The results of drug susceptibility test were statistically analyzed by WHONET software (version 5.6).

[2] = tested on: Acinetobacter baumannii (carbapenem-resistant clinical isolates; ATCC19606); assay: MIC by micro broth dilution (CLSI), Acinetobacter baumannii; settings: Acinetobacter baumannii; for MIC50 / MIC90: ATCC19606, Clinical strain; for MIC50: read-out: MIC50; for MIC90: read-out: MIC90; for MIC: Standard strain ATCC19606, read-out: MIC
How it was run: (§1)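 In cation-adjusted Mueller-Hinton broth, 10^5 CFU/mL of bacteria met compound concentrations of 128 to 0.06 mg/L. Plates sat in air at 35±2° C for 20 hours.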

[3] = tested on: Prostate cancer cell line LNcaP; assay: Inhibitory activity on cancer cells, CellTiter-Glo viability, LNcaP; settings: Homo sapiens, 72 hours treatment
How it was run: (§2)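 HUVEC seeded at 2000, UM-UC-3 and RM-1 at 3000, LNCaP at 5000 cells/well, each in its own medium, 24 h before dosing. Compounds: 8-point 2.5-fold dilutions from 100 μmol, 72 h at 37 °C, 5% CO2. CellTiter-Glo luminescence; IC50 from growth-inhibition curves.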

[4] = tested on: Bladder cancer cell line UM-UC-3; assay: Inhibitory activity on cancer cells, CellTiter-Glo viability, UM-UC-3; settings: Homo sapiens, UMUC3, 72 hours treatment
How it was run: as §2

[5] = tested on: Endothelial cell line HUVEC; assay: Inhibitory activity on cells, CellTiter-Glo viability, HUVEC; settings: Homo sapiens, 72 hours treatment
How it was run: as §2

[6] = tested on: Escherichia coli (carbapenem-resistant clinical isolate; ATCC25922); assay: MIC by micro broth dilution (CLSI), Escherichia coli; settings: for MIC50 / MIC90: ATCC25922, Clinical strain; for MIC50 / MIC90 / MIC: Escherichia coli; for MIC50: read-out: MIC50; for MIC90: read-out: MIC90; for MIC: Standard strain ATCC25922, read-out: MIC
How it was run: as §1

[7] = tested on: Mouse prostate cancer cell line RM1; assay: Inhibitory activity on cancer cells, CellTiter-Glo viability, RM1; settings: 72 hours treatment
How it was run: as §2

[8] = tested on: Staphylococcus aureus (methicillin-resistant and sensitive clinical isolates; ATCC29213); assay: MIC by micro broth dilution (CLSI), Staphylococcus aureus; settings: for MIC50 / MIC90: Clinical strain; for MIC50: read-out: MIC50; for MIC90: read-out: MIC90; for MIC: Standard strain ATCC29213, read-out: MIC
How it was run: as §1

O=[N+]([O-])c1cc(I)c2cccnc2c1O [Example 3, 5-Iodo-7-nitroquinolin-8-ol]
MIC50 [1]: > 64 µg/mL
MIC90 [1]: > 64 µg/mL
MIC50 [2]: > 64 µg/mL
MIC90 [2]: > 64 µg/mL

O=[N+]([O-])c1cc(Cl)c2c(OC3CCCC3)ccnc2c1O [Example 59, 5-Chloro-4-(cyclopentyloxy)-7-nitroquinolin-8-ol]
MIC50 [2]: > 128 µg/mL
MIC90 [2]: > 128 µg/mL
MIC [2]: 128 µg/mL (≈ 415 µM)
IC50 [3]: 1.5 µM
IC50 [4]: 1.49 µM
IC50 [5]: 0.78 µM
MIC50 [6]: 128 µg/mL (≈ 415 µM)
MIC90 [6]: 128 µg/mL (≈ 415 µM)
MIC [6]: 128 µg/mL (≈ 415 µM)
IC50 [7]: 1.46 µM
MIC50 [8]: 16 µg/mL (≈ 51.8 µM)
MIC90 [8]: 16 µg/mL (≈ 51.8 µM)
MIC [8]: 16 µg/mL (≈ 51.8 µM)

CCOc1ccnc2c(O)c([N+](=O)[O-])cc(Cl)c12 [Example 61, 5-Chloro-4-ethoxy-7-nitroquinolin-8-ol]
MIC50 [2]: > 128 µg/mL
MIC90 [2]: > 128 µg/mL
MIC [2]: > 128 µg/mL
IC50 [3]: 5.22 µM
IC50 [4]: 5.29 µM
IC50 [5]: 2.58 µM
MIC50 [6]: > 128 µg/mL
MIC90 [6]: > 128 µg/mL
MIC [6]: > 128 µg/mL
IC50 [7]: 4.26 µM
MIC50 [8]: 16 µg/mL (≈ 59.6 µM)
MIC90 [8]: 32 µg/mL (≈ 119 µM)
MIC [8]: 16 µg/mL (≈ 59.6 µM)

O=[N+]([O-])c1ccc2c(C(F)(F)F)ccnc2c1O [Example 62, 7-Nitro-4-trifluoromethylquinolin-8-ol]
MIC50 [2]: 4 µg/mL (≈ 15.5 µM)
MIC90 [2]: 4 µg/mL (≈ 15.5 µM)
MIC [2]: 4 µg/mL (≈ 15.5 µM)
IC50 [3]: 2.49 µM
IC50 [4]: 11.2 µM
IC50 [5]: 3.54 µM
MIC50 [6]: 8 µg/mL (≈ 31 µM)
MIC90 [6]: 8 µg/mL (≈ 31 µM)
MIC [6]: 4 µg/mL (≈ 15.5 µM)
inhibitory effect against Escherichia coli compared with the reference drug nitroxoline ([6]; MIC comparison): comparable to that of the reference drug nitroxoline
IC50 [7]: 4.82 µM
MIC50 [8]: 2 µg/mL (≈ 7.75 µM)
MIC90 [8]: 4 µg/mL (≈ 15.5 µM)
MIC [8]: 2 µg/mL (≈ 7.75 µM)

O=[N+]([O-])c1cc(Cl)c2c(C3CCCCC3)ccnc2c1O [Example 64, 5-Chloro-4-cyclohexyl-7-nitroquinolin-8-ol]
MIC50 [2]: > 128 µg/mL
MIC90 [2]: > 128 µg/mL
MIC [2]: > 128 µg/mL
IC50 [3]: 0.22 µM
IC50 [4]: 1.24 µM
IC50 [5]: 0.44 µM
MIC50 [6]: > 128 µg/mL
MIC90 [6]: > 128 µg/mL
MIC [6]: > 128 µg/mL
IC50 [7]: 0.86 µM
MIC50 [8]: 0.5 µg/mL (≈ 1.63 µM)
MIC90 [8]: 1 µg/mL (≈ 3.26 µM)
MIC [8]: 0.5 µg/mL (≈ 1.63 µM)

CC1CCCN(c2ccnc3c(O)c([N+](=O)[O-])cc(Cl)c23)C1 (centres unmarked) [Example 66, 5-Chloro-4-(3-methylpiperidin-1-yl)-7-nitroquinolin-8-ol]
MIC50 [2]: > 128 µg/mL
MIC90 [2]: > 128 µg/mL
MIC [2]: > 128 µg/mL
IC50 [3]: 1.36 µM
IC50 [4]: 5.43 µM
IC50 [5]: 4.54 µM
MIC50 [6]: > 128 µg/mL
MIC90 [6]: > 128 µg/mL
MIC [6]: > 128 µg/mL
IC50 [7]: 4.29 µM
MIC50 [8]: 1 µg/mL (≈ 3.11 µM)
MIC90 [8]: 1 µg/mL (≈ 3.11 µM)
MIC [8]: 1 µg/mL (≈ 3.11 µM)

Cl.O=[N+]([O-])c1cc(Cl)c2c(OCc3ccccc3)ccnc2c1O [Example 67, 4-(benzyloxy)-5-chloro-7-nitroquinolin-8-ol hydrochloride]
MIC50 [2]: > 128 µg/mL
MIC90 [2]: > 128 µg/mL
MIC [2]: > 128 µg/mL
IC50 [3]: 8.68 µM
IC50 [4]: 9.28 µM
IC50 [5]: 3.23 µM
MIC50 [6]: > 128 µg/mL
MIC90 [6]: > 128 µg/mL
MIC [6]: > 128 µg/mL
IC50 [7]: 13.2 µM
MIC50 [8]: 1 µg/mL
MIC90 [8]: 64 µg/mL
MIC [8]: 2 µg/mL
